The data set is described as follows: activity coefficient (dimensionless); of the first substance listed, at infinite dilution; xn = mol fraction of the nth substance listed. To be noted: 101 kPa, Liquid, Chromatography, x1 = 0.

Each structure is given as a SMILES string. Numbers after ± are expanded uncertainties.

In the case of `CCO` [ethanol] + CCCC[N+](C)(CCCC)CCCC.COS(=O)(=O)[O-], the activity coefficient is, setting by setting: (338.15 K) 0.24 ± 0.03; (348.15 K) 0.2 ± 0.03; (358.15 K) 0.19 ± 0.03; (368.15 K) 0.17 ± 0.03.

Turning to `CC(C)(C)O` [2-methylpropan-2-ol] + CCCC[N+](C)(CCCC)CCCC.COS(=O)(=O)[O-], the activity coefficient (338.15 K) is 0.32 ± 0.03, the activity coefficient (348.15 K) turned out to be 0.28 ± 0.03, the activity coefficient (358.15 K) came out at 0.25 ± 0.03 and the activity coefficient (368.15 K) was 0.23 ± 0.03.

In the case of `CO` [methanol] + CCCC[N+](C)(CCCC)CCCC.COS(=O)(=O)[O-], the activity coefficient stood at 0.16 ± 0.03 (338.15 K), 0.15 ± 0.03 (348.15 K), 0.14 ± 0.03 (358.15 K) and 0.13 ± 0.03 (368.15 K).

Turning to `CCC(C)O` (centres undefined) [butan-2-ol] + CCCC[N+](C)(CCCC)CCCC.COS(=O)(=O)[O-], the activity coefficient came out at 0.38 ± 0.03 (338.15 K), 0.29 ± 0.03 (348.15 K), 0.24 ± 0.03 (358.15 K) and 0.2 ± 0.03 (368.15 K).

For the compound `CCCCO` [butan-1-ol] + CCCC[N+](C)(CCCC)CCCC.COS(=O)(=O)[O-], the activity coefficient turned out to be 0.4 ± 0.03 (338.15 K), 0.31 ± 0.03 (348.15 K), 0.25 ± 0.03 (358.15 K) and 0.22 ± 0.03 (368.15 K).

Take `CCCO` [propan-1-ol] + CCCC[N+](C)(CCCC)CCCC.COS(=O)(=O)[O-]: the activity coefficient reads like this: (338.15 K) 0.29 ± 0.03; (348.15 K) 0.24 ± 0.03; (358.15 K) 0.21 ± 0.03; (368.15 K) 0.18 ± 0.03.

The values are drawn from the NIST ThermoML archive (doi:10.1021/acs.jced.5b00919).
